From patent US7279314B2, “Chemical substance having morphogenetic and growth-accelerating activities” (Marine Biotechnology Institute Co., Ltd., priority 2002, dated 2007)

Columns and labels:
[1] = Solubility (physicochemical properties); details: for Solubility in hydrated solvent: aqueous methanol or aqueous acetonitrile, percentage range given per compound; for Solubility in less-polar organic solvents: such as hexane or chloroform (Me1H1W4: chloroform and toluene)
Monostroma oxyspermum = test: Minimum effective concentration (MEC) for thallus formation in Monostroma oxyspermum culture; assay type: cell-based
Description: One ml of modified ASP7 medium was added in the wells of the first row of 48-well microtitre plates (Iwaki, hereafter abbreviated as 48-MTP) and 0.9 ml of modified ASP7 medium was added in the wells of the second and subsequent rows. Eleven μl of the active substance fraction of the target was added individually and mixed well by pipetting in the wells on the first row, followed by adding 100 μl of this mixed solution to the wells on the next row. By repeating this procedures subsequently for 8 to 18 times for each fraction, a ten-fold serial dilution can be prepared in 8 to 18 steps. 100 μl that remained in solution in the wells on the last row was discarded. Here, 100 μl of Monostroma oxyspermum culture medium was diluted subsequently so that the final cell concentration of 10 to 20 cells per 1 ml, was delivered to all wells of 48-MTP to bring the total amount of solution to 1 ml. […] The MEC is used as an index for isolation.
Similar to the case of Example 1, isolated and purified novel chemical substance 1 was serially diluted in 16 steps starting with the final concentration of 1 μg/ml. At this time, the Monostroma oxyspermum cell number was adjusted to be 20 cells per 1 ml of the medium. Fresh pipet tips were used for each step dilution. Three sets of these series were prepared and were cultivated for 3 days under the same condition as Example 1. […] Based on this, the MEC of the novel chemical substance 1 will be as follows.
Similar to Example 5, the MEC of the novel chemical substance 1 and its derivatives are measured and the results are shown below.

[2] = tested on: Enteromorpha intestinalis; test: Culturing experiment of Enteromorpha intestinalis; assay type: cell-based; details: 1 ng/ml in ASP7 medium, vs control group without addition (FIG. 16)
Description: (§1) Spores obtained from the Ulva pertusa and Enteromorpha intestinalis collected from Miho Shimizu-city, Shizuoka were washed using their phototaxis activity in the ASP7 medium supplemented with the antibiotics, and then were transferred to rectangular petri dishes filled with sterilized covered glasses and aseptized for 5 days. When the free-living cells had attached to the cover glasses and had start growing, each cover glass was placed in each hole of 6-MTP, followed by adding 10 ml of the ASP7 medium not supplemented with antibiotics. For a test group, the novel chemical substance 1 was added to result in 1 ng/ml and for the control group, nothing was added. They were incubtaed for 7 days under the same conditions as in Example 1. […], the cover glasses of the test group and control section were transferred to the culture test tube containing the medium prepared under the same condition to further incubate another 7 days. […] In addition, the ASP7 medium supplemented with antibiotics is an ASP medium, having the following composition and containing 2% antibiotics.

Ulva pertusa = test: Culturing experiment of Ulva pertusa; assay type: cell-based; details: 1 ng/ml in ASP7 medium, vs control group without addition (FIG. 15)
Description: as §1

[3] = Stability of the substances; assay type: physicochemical
[4] = thallus formation of Monostroma oxyspermum, measured similar to Example 5

| SMILES | Solubility in DMSO ([1]; DMSO) | Solubility in hydrated solvent [1] | Solubility in less-polar organic solvents [1] | Solubility in water [1] | MEC (Monostroma oxyspermum; [4]) | Solubility in non-polar solvent ([1]; such as hexane) | Development and thallus formation [2] | Development and thallus formation (Ulva pertusa) | Stability ([3]; general statement) | Stability ([3]; substance induced under alkali condition) | MEC (Monostroma oxyspermum; cultivated for 3 days, 20 cells per 1 ml, thallus formation at 12-step ten-fold dilution from 1 μg/ml) [ag/ml] | MEC after 10 days cultivation (Monostroma oxyspermum; cultivated for 10 days, six-step dilution from 1 μg/ml) [pg/mL] | Thallus state (Monostroma oxyspermum; seven-step dilution, final concentration 1×10^−7 μg/ml, cultivated for 10 days (FIG. 13)) | Thallus state (Monostroma oxyspermum; six-step dilution, final concentration 1×10^−6 μg/ml, cultivated for 10 days (FIG. 14)) |
| --- | --- | --- | --- | --- | --- | --- | --- | --- | --- | --- | --- | --- | --- | --- |
| COC(=O)C1=C(c2ccc(C(=O)OC)nc2C(=O)OC)CC2[C@@](C)(CC[C@H]3C(C)(C)CCC[C@]23C)O1 (stereo partly shown) [Me1] | hardly soluble | soluble | hardly soluble | hardly soluble | 10^−4 μg/ml | – | – | – | – | – | – | – | – | – |
| CC1(C)CCC[C@]2(C)C3C[C@H]4c5ccc(CO)nc5CO[C@@]4(CO)O[C@]3(C)CC[C@@H]12 (stereo partly shown) [Me1H1W4] | – | soluble | soluble | Poorly soluble | – | hardly soluble | – | – | – | – | – | – | – | – |
| CC1(C)CCC[C@]2(C)C3CC(c4ccc(CO)nc4CO)=C(CO)O[C@]3(C)CC[C@@H]12 (stereo partly shown) [Me1H1] | – | soluble | soluble | hardly soluble | No activity | – | – | – | – | – | – | – | – | – |
| CC1(C)CCC[C@]2(C)C3CC(c4ccc(C(=O)O)nc4C(=O)O)=C(C(=O)O)O[C@]3(C)CC[C@@H]12 (stereo partly shown) [Novel Chemical Substance 1] | – | – | – | – | 10^−12 μg/ml | – | normal development and thallus formation were observed | normal development and thallus formation were observed | quite stable | relatively stable | 1 | 1 | the disrupted thallus is observed | The thallus was maintained without being collapsed |
